# Source: patent US8999982B2, “Pharmaceutically active compounds as Axl inhibitors” (Lead Discovery Center GmbH, priority 2010, dated 2015)
# How the values were obtained:
# Axl [1] = biological target: T1, Axl (Homo sapiens (Human), UniProt P30530); assay: Axl binding assay
# Method: Binding of the tracer to the kinase is detected using an EU-labeled anti-tag antibody. […] Binding of an inhibitor to the kinase competes for binding with the tracer, resulting in a loss of FRET-signal. At first a compound according to formula (I) was diluted in 20 mM Hepes pH 8.0, 1 mM DTT, 10 mM MgCl2 and 0.01% Brij35.
# Axl [2] = biological target: T1, Axl; assay: Cellular Axl phosphorylation assay; type: cell-based; conditions: HEK293 cells transfected with Axl cDNA, 1 hour incubation
# Outline: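 Transiently Axl-transfected HEK293 cells, with a vector-only negative control, were treated with compound for 1 hour on the day after medium change. Axl phosphorylation was quantified by mesoscale detection.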
# T1 sequence (P30530 26-894): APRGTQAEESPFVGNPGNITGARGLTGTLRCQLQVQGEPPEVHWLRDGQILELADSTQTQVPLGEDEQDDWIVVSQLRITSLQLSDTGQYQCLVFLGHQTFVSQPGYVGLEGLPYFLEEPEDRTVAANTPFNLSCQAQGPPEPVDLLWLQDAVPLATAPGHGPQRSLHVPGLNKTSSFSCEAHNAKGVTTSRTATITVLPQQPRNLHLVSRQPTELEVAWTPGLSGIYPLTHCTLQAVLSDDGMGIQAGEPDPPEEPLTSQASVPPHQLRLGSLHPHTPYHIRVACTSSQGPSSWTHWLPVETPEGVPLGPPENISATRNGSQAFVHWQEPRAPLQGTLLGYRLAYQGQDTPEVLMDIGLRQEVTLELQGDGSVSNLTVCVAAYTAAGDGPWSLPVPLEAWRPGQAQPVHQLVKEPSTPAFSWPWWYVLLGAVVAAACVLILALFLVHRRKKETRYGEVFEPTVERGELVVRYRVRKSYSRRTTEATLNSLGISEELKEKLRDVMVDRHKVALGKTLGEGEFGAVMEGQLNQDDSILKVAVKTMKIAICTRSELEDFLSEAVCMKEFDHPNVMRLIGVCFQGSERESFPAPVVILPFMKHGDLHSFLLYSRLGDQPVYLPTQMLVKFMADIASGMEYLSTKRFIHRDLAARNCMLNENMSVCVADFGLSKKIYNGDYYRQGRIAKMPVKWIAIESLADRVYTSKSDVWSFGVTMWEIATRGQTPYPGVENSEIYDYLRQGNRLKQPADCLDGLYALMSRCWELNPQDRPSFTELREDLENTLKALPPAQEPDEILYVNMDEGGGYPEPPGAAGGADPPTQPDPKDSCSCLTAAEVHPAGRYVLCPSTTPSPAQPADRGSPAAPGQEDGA
Compound,IC50 (Axl [1]) [nM],IC50 (Axl [2]) [nM]
"CCOc1cn(-c2ccc(F)cc2C)nc1C(=O)Nc1ccc(Oc2ccnc3cc(OCC4CCN(CC(C)C)CC4)c(OC)cc23)c(F)c1 [Example 83, 4-ethoxy-N-[3-fluoro-4-[[7-[(1-isobutyl-4-piperidyl)methoxy]-6-methoxy-4-quinolyl]oxy]phenyl]-1-(4-fluoro-2-methyl-phenyl)pyrazole-3-carboxamide]",< 500,< 500
"CCOc1cn(-c2ccc(F)cc2)nc1C(=O)Nc1ccc(Oc2ccnc3cc(OC)c(OC)cc23)cn1 [Example 84, N-[5-[(6,7-dimethoxy-4-quinolyl)oxy]-2-pyridyl]-4-ethoxy-1-(4-fluorophenyl)pyrazole-3-carboxamide]",< 500,< 500
"CCOc1cn(-c2ccc(F)cc2C)nc1C(=O)Nc1ccc(Oc2ccnc3cc(OC)c(OC)cc23)cn1 [Example 85, N-[5-[(6,7-dimethoxy-4-quinolyl)oxy]-2-pyridyl]-4-ethoxy-1-(4-fluoro-2-methyl-phenyl)pyrazole-3-carboxamide]",< 500,< 500
"CCOc1cn(-c2ccc(F)cc2Cl)nc1C(=O)Nc1ccc(Oc2ccnc3cc(OC)c(OC)cc23)cn1 [Example 86, 1-(2-chloro-4-fluoro-phenyl)-N-[5-[(6,7-dimethoxy-4-quinolyl)oxy]-2-pyridyl]-4-ethoxy-pyrazole-3-carboxamide]",< 500,< 500
"COc1cc2nccc(Oc3ccc(NC(=O)c4nn(-c5ccc(F)cc5)cc4CCN(C)C)nc3)c2cc1OC [Example 87, N-[5-[(6,7-dimethoxy-4-quinolyl)oxy]-2-pyridyl]-4-(2-dimethylaminoethyl)-1-(4-fluorophenyl)pyrazole-3-carboxamide]",500 to 5000,< 500
"CCOc1cn(-c2ccc(OC)cc2C)nc1C(=O)Nc1ccc(Oc2ccnc3cc(OC)c(OC)cc23)cn1 [Example 89, N-(5-((6,7-dimethoxyquinolin-4-yl)oxy)pyridin-2-yl)-4-ethoxy-1-(4-methoxy-2-methylphenyl)-1H-pyrazole-3-carboxamide]",< 500,< 500
"CCOc1cn(-c2cccc([N+](=O)[O-])c2)nc1C(=O)Nc1ccc(Oc2ccnc3cc(OC)c(OC)cc23)c(F)c1 [Example 90, N-(4-((6,7-dimethoxyquinolin-4-yl)oxy)-3-fluorophenyl)-4-ethoxy-1-(3-nitrophenyl)-1H-pyrazole-3-carboxamide]",< 500,< 500
"CCOc1cn(-c2ccc(OC)cc2C)nc1C(=O)Nc1ccc(Oc2ccnc3cc(OC)c(OC)cc23)c(F)c1 [Example 91, N-(4-((6,7-dimethoxyquinolin-4-yl)oxy)-3-fluorophenyl)-4-ethoxy-1-(4-methoxy-2-methylphenyl)-1H-pyrazole-3-carboxamide]",< 500,< 500
"CCOc1cn(-c2cccc([N+](=O)[O-])c2)nc1C(=O)Nc1ccc(Oc2ccnc3cc(OC)c(OC)cc23)cn1 [Example 92, N-(5-((6,7-dimethoxyquinolin-4-yl)oxy)pyridin-2-yl)-4-ethoxy-1-(3-nitrophenyl)-1H-pyrazole-3-carboxamide]",< 500,< 500
"CCOc1cn(-c2ccc(F)cc2C)nc1C(=O)Nc1ccc(Oc2ccnc3cc(OC)c(OC)cc23)cc1OC [Example 94, N-(4-((6,7-dimethoxyquinolin-4-yl)oxy)-2-methoxyphenyl)-4-ethoxy-1-(4-fluoro-2-methylphenyl)-1H-pyrazole-3-carboxamide]",< 500,< 500
"CCOc1cn(-c2ccc(F)cc2C)nc1C(=O)Nc1ccc(Oc2ccnc3cc(OC)c(OC)cc23)cc1C [Example 95, N-(4-((6,7-dimethoxyquinolin-4-yl)oxy)-2-methylphenyl)-4-ethoxy-1-(4-fluoro-2-methylphenyl)-1H-pyrazole-3-carboxamide]",< 500,500 to 5000
"CCOc1cn(-c2ccc(F)c(OC)c2)nc1C(=O)Nc1ccc(Oc2ccnc3cc(OC)c(OC)cc23)c(F)c1 [Example 96, N-(4-((6,7-dimethoxyquinolin-4-yl)oxy)-3-fluorophenyl)-4-ethoxy-1-(4-fluoro-3-methoxyphenyl)-1H-pyrazole-3-carboxamide]",< 500,< 500
"CCOc1cn(-c2ccc(F)c(OC)c2)nc1C(=O)Nc1ccc(Oc2ccnc3cc(OC)c(OC)cc23)cn1 [Example 97, N-(5-((6,7-dimethoxyquinolin-4-yl)oxy)pyridin-2-yl)-4-ethoxy-1-(4-fluoro-3-methoxyphenyl)-1H-pyrazole-3-carboxamide]",< 500,< 500
"CCOc1cn(-c2ccc([N+](=O)[O-])cc2)nc1C(=O)Nc1ccc(Oc2ccnc3cc(OC)c(OC)cc23)cn1 [Example 98, N-(5-((6,7-dimethoxyquinolin-4-yl)oxy)pyridin-2-yl)-4-ethoxy-1-(4-nitrophenyl)-1H-pyrazole-3-carboxamide]",500 to 5000,< 500
"CCOc1cn(-c2ccc(N)cc2)nc1C(=O)Nc1ccc(Oc2ccnc3cc(OC)c(OC)cc23)cn1 [Example 99, 1-(4-aminophenyl)-N-(5-((6,7-dimethoxyquinolin-4-yl)oxy)pyridin-2-yl)-4-ethoxy-1H-pyrazole-3-carboxamide]",< 500,< 500
"COc1cc2c(Oc3ccc(NC(=O)c4nc(-c5ccccc5)cs4)nc3)ccnc2cc1OCC1CCNCC1 [Example 101, N-(5-((6-methoxy-7-(piperidin-4-ylmethoxy)quinolin-4-yl)oxy)pyridin-2-yl)-4-phenylthiazole-2-carboxamide]",< 500,< 500
"COc1cc2c(Oc3ccc(NC(=O)c4nc(Br)cs4)nc3)ccnc2cc1OCC1CCNCC1 [Example 102, 4-bromo-N-(5-((6-methoxy-7-(piperidin-4-ylmethoxy)quinolin-4-yl)oxy)pyridin-2-yl)thiazole-2-carboxamide]",< 500,< 500
"CCOc1cn(-c2ccc(F)cc2O)nc1C(=O)Nc1ccc(Oc2ccnc3cc(OC)c(OC)cc23)cn1 [Example 104, N-(5-((6,7-dimethoxyquinolin-4-yl)oxy)pyridin-2-yl)-4-ethoxy-1-(4-fluoro-2-hydroxyphenyl)-1H-pyrazole-3-carboxamide]",< 500,< 500
"CCOc1cn(-c2cccnc2)nc1C(=O)Nc1ccc(Oc2ccnc3cc(OC)c(OC)cc23)c(F)c1 [Example 105, N-(4-((6,7-dimethoxyquinolin-4-yl)oxy)-3-fluorophenyl)-4-ethoxy-1-(pyridin-3-yl)-1H-pyrazole-3-carboxamide]",< 500,< 500
